Laboratory results reported in ChEMBL document CHEMBL1153502, “Investigation of the pharmacophore space of Severe Acute Respiratory Syndrome coronavirus (SARS-CoV) NTPase/helicase by dihydroxychromone derivatives” (Bioorg Med Chem Lett, 2009).

Assays:
[1] = target: T1, Replicase polyprotein 1ab (Severe acute respiratory syndrome-related coronavirus, UniProt P0C6X7); experiment: Inhibition of ATPase activity of SARS coronavirus helicase assessed as phosphate release by malachite green assay
[2] = target: T1, Replicase polyprotein 1ab; experiment: Inhibition of SARS coronavirus helicase assessed as duplex-DNA unwinding by FRET based assay

SMILES | IC50 [1] | IC50 [2]
N#Cc1cccc(CNCc2cc(=O)c3c(O)c(O)ccc3o2)c1 | > 50 µM | > 50 µM
O=c1c(O)c(-c2ccc3c(c2)OCO3)oc2cc(OCc3cccc(Cl)c3)cc(O)c12 | > 50 µM | 15.4 µM
O=c1c(O)c(-c2ccc3c(c2)OCO3)oc2cc(O)cc(O)c12 | > 50 µM | > 50 µM
N#Cc1cccc(COc2cc(O)c3c(=O)c(O)c(-c4ccc5c(c4)OCO5)oc3c2)c1 | 42.9 µM | 8.1 µM
O=c1c(O)c(-c2ccc3c(c2)OCO3)oc2cc(OCc3ccc(Cl)cc3)cc(O)c12 | > 50 µM | 9.3 µM
O=c1c(O)c(-c2ccc(O)c(O)c2)oc2cc(OCc3ccc(Cl)cc3)cc(O)c12 | 20.9 µM | 4.1 µM
O=c1cc(CNCc2ccc(Cl)cc2)oc2ccc(O)c(O)c12 | > 50 µM | > 50 µM
N#Cc1cccc(COc2cc(O)c3c(=O)c(O)c(-c4ccc(O)c(O)c4)oc3c2)c1 | 25.4 µM | 2.7 µM
O=c1c(O)c(-c2ccc(O)c(O)c2)oc2cc(OCc3cccc(Cl)c3)cc(O)c12 | > 50 µM | 5.2 µM
O=c1cc(CNCc2cccc(Cl)c2)oc2ccc(O)c(O)c12 | > 50 µM | > 50 µM
